Format in all cases: cell-based, Rattus norvegicus
For test [1], the system named is α4β2 nAChRs expressed in Xenopus laevis oocytes. Kind of test: Two-electrode voltage clamp, ACh-induced currents in oocytes. The conditions noted are these: ACh as agonist; for ACh Peak Current (nA) / ACh EC50 (μM): mean ± SEM of 6-17 oocytes; for ACh-induced macroscopic peak current compared with WT / receptor function with ACh: in words; for ACh EC50 (μM): −70 mV. On the set-up: key to ACh EC50 (μM) / ACh Hill Coef. / ACh Peak Current (nA): (n/f) non-functional; (n/e) no-expression. How it is done:
(§1) Single point mutations were prepared using the Quickchange™ Site-Directed Mutagenesis Kit (Stratagene, La Jolla, Calif.). The template used for the PCR reaction was the pGEMHE vector with Rattus norvegicus cDNA coding for the α4 neuronal nAChR subunit. DNA was purified using a QIAprep spin miniprep kit (Quiagen, Germantown, Md.) and then sequenced to confirm the incorporation of each mutation. A total of 11 residues in the cytoplasmic loop of the α4 subunit were chosen to be mutated: S364, T417, S438, S469, S471, S490, S504, S516, T536, Y576, and S589. Each residue was mutated to alanine (A) and aspartic acid (D).
(§2) Each subunit encoding mRNA was synthesized in vitro from linearized pGEMHE plasmid templates of Rattus norvegicus cDNA coding for α4 and β2 nAChR subunits using the mMessage mMachine RNA transcription kit (Ambion, Austin, Tex.). mRNA mixtures of α4 and β2 subunits were prepared at 2 μg:3 μg ratio, and 32.2 nL of this mixture was microinjected into each oocyte. The mRNA mixture was microinjected, using a displacement injector (Drummond Instruments, Broomhall, Pa.), into stage V and VI oocytes that had been extracted, incubated in collagenase Type 1A (Sigma, St. Louis, Mo.), and defolliculated by manual dissection. The injected oocytes were incubated at 19° C. for 3-4 days in ND-96 medium supplemented with albumin, gentamicin, tetracycline, and theophyline. Electrophysiological experiments were performed after the third or fourth day of mRNA injection.
(§3) Oocytes injected with the mRNA transcripts of α4 and β2 subunits were characterized using a two-electrode voltage clamp. ACh- and nicotine-induced currents were recorded at 20° C., 3-4 days after mRNA injection, with a GeneClamp 500B Amplifier (Axon Instruments, Foster City, Calif.). […] All the reagents used were purchased from Sigma-Aldrich, Co. (St. Louis, Mo.). For dose-response curves, each oocyte was held at a membrane potential of −70 mV. Membrane currents were digitized using the DigiData 1322A interface (Axon Instruments, Foster City, Calif.), filtered at 2 kHz during recording. The Clampex 10.0 software running on a Pentium 4-based computer was used for data acquisition. Data analysis was via Prism 3.0 (Graphpad Software, San Diego, Calif.). Dose-response data for the α4β2 combination were collected using seven ACh doses (0.1, 1, 3, 10, 30, 100, and a seventh concentration ranging from 300 to 1000 μM depending on the mutant) and seven nicotine concentrations (0.1, 1, 3, 10, 30, 100, 300 μM). The data were fitted using a one-component sigmoidal dose-response equation, Y=I/ImaxBottom+(I/ImaxTop−I/ImaxBottom)/(1+10^((Log EC50−X)×HillSlope)) where X is the logarithm of concentration and Y is the response.
A general note: In two-electrode clamp one electrode senses voltage and the other passes current.
Target sequence in this assay (P09483 31-249 limits assumed): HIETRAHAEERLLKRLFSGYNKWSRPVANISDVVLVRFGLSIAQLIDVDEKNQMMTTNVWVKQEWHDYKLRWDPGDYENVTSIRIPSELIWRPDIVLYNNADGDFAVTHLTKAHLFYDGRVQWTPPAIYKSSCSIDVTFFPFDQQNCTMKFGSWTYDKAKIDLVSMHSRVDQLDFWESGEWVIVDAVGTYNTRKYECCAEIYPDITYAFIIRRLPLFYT
Target sequence in this assay (P12390 25-237 limits assumed, further chain): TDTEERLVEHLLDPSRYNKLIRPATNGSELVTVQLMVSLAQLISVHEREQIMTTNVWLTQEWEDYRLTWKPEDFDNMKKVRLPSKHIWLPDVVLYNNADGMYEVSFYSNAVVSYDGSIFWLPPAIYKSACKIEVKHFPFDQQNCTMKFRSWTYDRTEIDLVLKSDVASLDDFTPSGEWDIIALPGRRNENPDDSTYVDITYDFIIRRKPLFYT

For test [2] the test system is unchanged. Kind of test: Two-electrode voltage clamp, nicotine-induced currents in oocytes. The following applies: for Nicotine Hill Coef. / Nicotine Peak Current (nA) / receptor function with nicotine / Nicotine EC50 (μM) / nicotine-induced macroscopic peak current compared with WT: nicotine as agonist; for Nicotine Peak Current (nA) / Nicotine EC50 (μM): mean ± SEM of 6-17 oocytes; for receptor function with nicotine / nicotine-induced macroscopic peak current compared with WT: in words; for Nicotine EC50 (μM): −70 mV; for Nicotine sensitivity mark of the mutation: footnote mark beside the mutation. On the set-up: key to Nicotine EC50 (μM) / Nicotine Hill Coef. / Nicotine Peak Current (nA): (n/f) non-functional; (n/e) no-expression; key to Nicotine sensitivity mark of the mutation: Mutations highlighted in green (‡) exhibit hypersensitivity to nicotine; those in red (¶) exhibit agonist selectivity evidenced by their remarkable reductions in sensitivity to nicotine. On the procedure:
as §1, §2, §3
Target sequence in this assay (P09483 31-333 limits assumed): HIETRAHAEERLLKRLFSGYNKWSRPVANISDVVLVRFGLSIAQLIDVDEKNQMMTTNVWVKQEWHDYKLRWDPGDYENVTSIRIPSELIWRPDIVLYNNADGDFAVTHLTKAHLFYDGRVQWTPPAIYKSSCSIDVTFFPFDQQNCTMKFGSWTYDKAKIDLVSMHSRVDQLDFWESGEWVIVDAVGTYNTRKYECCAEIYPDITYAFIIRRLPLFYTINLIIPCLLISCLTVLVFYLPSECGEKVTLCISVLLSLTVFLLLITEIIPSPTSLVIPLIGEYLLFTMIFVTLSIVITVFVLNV
Target sequence in this assay (P12390 25-500, further chain): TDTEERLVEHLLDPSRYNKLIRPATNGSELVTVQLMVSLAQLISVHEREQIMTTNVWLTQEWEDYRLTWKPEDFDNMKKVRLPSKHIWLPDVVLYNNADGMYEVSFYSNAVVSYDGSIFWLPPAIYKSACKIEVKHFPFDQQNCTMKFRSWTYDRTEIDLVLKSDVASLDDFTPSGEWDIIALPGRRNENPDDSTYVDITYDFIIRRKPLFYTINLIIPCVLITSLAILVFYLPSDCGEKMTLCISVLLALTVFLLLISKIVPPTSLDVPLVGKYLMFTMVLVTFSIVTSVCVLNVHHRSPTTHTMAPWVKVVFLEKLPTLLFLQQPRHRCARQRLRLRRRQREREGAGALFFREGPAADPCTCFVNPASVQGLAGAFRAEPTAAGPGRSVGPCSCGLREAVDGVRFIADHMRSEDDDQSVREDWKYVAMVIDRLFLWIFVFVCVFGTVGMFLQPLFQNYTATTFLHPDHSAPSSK

Test [3] shares this test system. Kind of test: Efficacy of agonist A-85380 versus ACh for subunit stoichiometry determination. The following applies: A-85380 100 nM vs ACh 300 μM; α4β2 mRNA 2:3 ratio. How it is done: To determine whether the α4β2 mutations α4S469Aβ2, α4S471Dβ2, α4T536Aβ2 and α4Y576Aβ2 expressed in Xenopus laevis oocytes assemble in the α4(2):β2(3) or the α4(3):β2(2) stoichiometry, we estimated the efficacy of agonist A-85380 when compared to ACh 300 μM. […] The efficacy of A-85380 in WTα4(2):β2(3) and […] was determined by comparing the macroscopic current elicited by A-85380 100 nM and ACh 300 μM in oocytes microinjected α4β2 mRNA in 1:10 and 10:1 ratios, respectively. The efficacy of A-85380 in α4S469Aβ2, α4S471Dβ2, α4T536Aβ2 and α4Y576Aβ2 was determined by comparing the macroscopic current elicited by A-85380 100 nM and ACh 300 μM in oocytes microinjected α4β2 mRNA in 2:3 ratio. The changes in stoichiometry in these four mutants were assessed by comparing the efficacy of A-85380 in each mutant compared to WTα4(2):β2(3) and WTα4(3):β2(2).

Marks after values point to notes of the source that are not given here.

Consider “WT α4β2: wild-type rat α4β2 neuronal nicotinic acetylcholine receptor expressed in Xenopus laevis oocytes [reference compound]”, for which, in test [1], the “ACh Hill Coef.” value came to 1.00 and the “ACh Peak Current (nA)” value was determined as 2110 ± 243 nA. Besides, in test [2], the “Nicotine Hill Coef.” value is recorded as 1.80 and the “Nicotine Peak Current (nA)” value is reported as 387 ± 66 nA. The “Nicotine Peak Current (nA)” value in test [2] (listed as WT) is 387±66 nA.
As for “α4S438Aβ2: rat α4β2 nAChR, α4 subunit point mutation S438A, CKII putative phosphorylation site”, in test [1], the “ACh Hill Coef.” value was 0.49, the “ACh-induced macroscopic peak current compared with WT” value is reported as “significant decreases in the macroscopic peak currents” and the “ACh Peak Current (nA)” value was 97 ± 29 nA. Also, in test [2], the “Nicotine Hill Coef.” value is recorded as “n/f”, the “receptor function with nicotine” value is on record as “non-functional”, the “Nicotine Peak Current (nA)” value is “n/f” and the “Nicotine EC50 (μM)” value was “n/f”.
In the case of “α4S438Dβ2: rat α4β2 nAChR, α4 subunit point mutation S438D, CKII putative phosphorylation site”, in test [1], the “ACh Hill Coef.” value came to 0.68, the “ACh-induced macroscopic peak current compared with WT” value is “no change in the macroscopic peak current” and the “ACh Peak Current (nA)” value stood at 1938 ± 367 nA. Also, in test [2], the “Nicotine sensitivity mark of the mutation” value was “α4S438Dβ2‡”, the “Nicotine Hill Coef.” value amounted to 1.29, the “nicotine-induced macroscopic peak current compared with WT” value is given as “significant increases in the macroscopic peak currents” and the “Nicotine Peak Current (nA)” value turned out to be 2156 ± 475 nA. For the same substance, the “Nicotine Peak Current (nA)” value in test [2] (listed as α4S438D) worked out at 2156±475 nA.
Take “α4S469Aβ2: rat α4β2 nAChR, α4 subunit point mutation S469A, CKII putative phosphorylation site”: in test [1], the “ACh Hill Coef.” value came to 0.87, the “ACh-induced macroscopic peak current compared with WT” value is reported as “no change in the macroscopic peak current” and the “ACh Peak Current (nA)” value is recorded as 2222 ± 413 nA. In addition, in test [2], the “Nicotine sensitivity mark of the mutation” value is “α4S469Aβ2‡”, the “Nicotine Hill Coef.” value is 1.84, the “nicotine-induced macroscopic peak current compared with WT” value is given as “significant increases in the macroscopic peak currents” and the “Nicotine Peak Current (nA)” value came to 1552 ± 313 nA. Moreover, the “Nicotine Peak Current (nA)” value in test [2] (listed as α4S469A) is given as 1552±313 nA. Moreover, the “efficacy of A-85380 compared with WT injected 2:3 or 1:10 ratio” value in test [3] is recorded as “no significant difference”.
In the case of “α4S469Dβ2: rat α4β2 nAChR, α4 subunit point mutation S469D, CKII putative phosphorylation site”, in test [1], the “ACh Hill Coef.” value was “n/f”, the “receptor function with ACh” value is “non-functional”, the “ACh Peak Current (nA)” value is “n/f” and the “ACh EC50 (μM)” value is “n/f”. Moreover, in test [2], the “Nicotine Hill Coef.” value was “n/f”, the “receptor function with nicotine” value was “non-functional”, the “Nicotine Peak Current (nA)” value is “n/f” and the “Nicotine EC50 (μM)” value is recorded as “n/f”.
For “α4S471Aβ2: rat α4β2 nAChR, α4 subunit point mutation S471A, PKA putative phosphorylation site”, in test [1], the “ACh Hill Coef.” value is given as “n/f”, the “receptor function with ACh” value was “non-functional”, the “ACh Peak Current (nA)” value was “n/f” and the “ACh EC50 (μM)” value was “n/f”. Further, in test [2], the “Nicotine Hill Coef.” value is given as “n/f”, the “Nicotine Peak Current (nA)” value is “n/f” and the “Nicotine EC50 (μM)” value is recorded as “n/f”.
As to “α4S471Dβ2: rat α4β2 nAChR, α4 subunit point mutation S471D, PKA putative phosphorylation site”, in test [1], the “ACh Hill Coef.” value is given as 1.01, the “ACh-induced macroscopic peak current compared with WT” value is recorded as “significant decrease in macroscopic peak current” and the “ACh Peak Current (nA)” value worked out at 1039 ± 139 nA. For the same substance, in test [2], the “Nicotine Hill Coef.” value is reported as 2.00, the “nicotine-induced macroscopic peak current compared with WT” value was “significant decrease in the macroscopic peak current”, the “receptor function with nicotine” value is listed as “functional activation by nicotine” and the “Nicotine Peak Current (nA)” value is recorded as 142 ± 313 nA. Moreover, the “efficacy of A-85380 compared with WT injected 2:3 or 1:10 ratio” value in test [3] was “no significant difference”.
